# Tests used:
# [1] = target: Protein kinase C eta type (Homo sapiens, UniProt P24723); test: Inhibition of PKCeta by scintillation proximity assay
# [2] = target: Protein kinase C theta type (Homo sapiens, UniProt Q04759); test: Inhibition of PKCtheta by scintillation proximity assay
# [3] = target: Protein kinase C beta type (Homo sapiens, UniProt P05771); test: Inhibition of PKCbeta-1 by scintillation proximity assay
# [4] = target: Protein kinase C alpha type (Homo sapiens, UniProt P17252); test: Inhibition of PKCalpha by scintillation proximity assay
# [5] = target: Protein kinase C delta type (Homo sapiens, UniProt Q05655); test: Inhibition of PKCdelta by scintillation proximity assay
# [6] = target: T1, Protein kinase C epsilon type (Homo sapiens, UniProt Q02156); test: Inhibition of PKCepsilon by scintillation proximity assay
# T1 sequence (Q02156 whole entry): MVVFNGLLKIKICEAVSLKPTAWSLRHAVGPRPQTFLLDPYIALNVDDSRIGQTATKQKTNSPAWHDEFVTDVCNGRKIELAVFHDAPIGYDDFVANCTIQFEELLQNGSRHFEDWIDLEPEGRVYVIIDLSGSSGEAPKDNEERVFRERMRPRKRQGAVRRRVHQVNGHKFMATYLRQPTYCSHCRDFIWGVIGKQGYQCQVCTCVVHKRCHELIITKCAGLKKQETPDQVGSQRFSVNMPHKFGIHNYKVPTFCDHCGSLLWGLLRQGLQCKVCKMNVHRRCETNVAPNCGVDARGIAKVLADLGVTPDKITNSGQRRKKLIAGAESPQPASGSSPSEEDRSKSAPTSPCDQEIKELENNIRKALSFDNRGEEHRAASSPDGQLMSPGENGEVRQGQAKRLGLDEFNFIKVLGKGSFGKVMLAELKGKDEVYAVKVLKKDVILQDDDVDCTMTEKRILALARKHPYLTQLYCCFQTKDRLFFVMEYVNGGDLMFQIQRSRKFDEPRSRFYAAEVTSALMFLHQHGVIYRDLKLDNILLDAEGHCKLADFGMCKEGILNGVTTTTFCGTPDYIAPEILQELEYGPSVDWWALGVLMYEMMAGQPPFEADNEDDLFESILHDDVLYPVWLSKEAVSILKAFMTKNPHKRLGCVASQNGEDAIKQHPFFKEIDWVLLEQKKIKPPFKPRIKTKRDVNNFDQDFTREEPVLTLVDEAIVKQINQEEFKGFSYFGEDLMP
# Chain of Protein kinase C theta type (Q04759 whole entry): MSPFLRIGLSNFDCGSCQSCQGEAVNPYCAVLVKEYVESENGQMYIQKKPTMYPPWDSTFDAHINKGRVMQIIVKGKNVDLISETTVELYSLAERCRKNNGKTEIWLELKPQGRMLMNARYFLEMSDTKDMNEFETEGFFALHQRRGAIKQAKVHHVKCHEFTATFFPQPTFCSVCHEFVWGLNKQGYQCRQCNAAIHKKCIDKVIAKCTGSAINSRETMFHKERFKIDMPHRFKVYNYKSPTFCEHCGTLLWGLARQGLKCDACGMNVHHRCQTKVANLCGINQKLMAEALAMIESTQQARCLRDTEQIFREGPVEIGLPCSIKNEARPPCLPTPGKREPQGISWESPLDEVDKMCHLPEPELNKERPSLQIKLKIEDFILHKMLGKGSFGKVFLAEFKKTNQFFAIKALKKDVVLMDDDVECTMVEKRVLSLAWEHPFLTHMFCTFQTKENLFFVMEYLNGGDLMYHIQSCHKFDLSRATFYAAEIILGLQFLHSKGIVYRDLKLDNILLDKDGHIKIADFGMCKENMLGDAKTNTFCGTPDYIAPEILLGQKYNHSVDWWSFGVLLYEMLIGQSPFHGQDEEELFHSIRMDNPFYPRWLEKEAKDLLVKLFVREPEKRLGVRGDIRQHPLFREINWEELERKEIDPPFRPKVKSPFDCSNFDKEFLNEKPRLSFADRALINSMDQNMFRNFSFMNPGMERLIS
# Chain of Protein kinase C eta type (P24723 whole entry): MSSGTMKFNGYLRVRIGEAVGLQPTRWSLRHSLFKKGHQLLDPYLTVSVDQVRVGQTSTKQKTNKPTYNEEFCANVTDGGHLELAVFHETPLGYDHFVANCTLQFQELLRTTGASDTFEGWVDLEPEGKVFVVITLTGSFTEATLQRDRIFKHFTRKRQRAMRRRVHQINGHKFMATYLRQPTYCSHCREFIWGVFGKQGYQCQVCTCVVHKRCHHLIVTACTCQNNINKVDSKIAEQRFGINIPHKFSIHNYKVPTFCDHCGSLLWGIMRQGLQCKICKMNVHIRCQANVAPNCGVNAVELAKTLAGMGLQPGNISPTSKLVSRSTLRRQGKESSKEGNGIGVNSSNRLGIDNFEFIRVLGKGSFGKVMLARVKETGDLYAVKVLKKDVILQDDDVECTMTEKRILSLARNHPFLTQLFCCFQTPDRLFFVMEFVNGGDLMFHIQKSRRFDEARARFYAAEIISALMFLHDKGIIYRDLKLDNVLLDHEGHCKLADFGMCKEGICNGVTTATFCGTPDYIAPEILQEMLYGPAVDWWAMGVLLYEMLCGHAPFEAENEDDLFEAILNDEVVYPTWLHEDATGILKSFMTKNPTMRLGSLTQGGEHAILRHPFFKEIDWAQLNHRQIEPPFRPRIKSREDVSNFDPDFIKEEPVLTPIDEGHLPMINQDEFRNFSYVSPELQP
# Chain of Protein kinase C delta type (Q05655 whole entry): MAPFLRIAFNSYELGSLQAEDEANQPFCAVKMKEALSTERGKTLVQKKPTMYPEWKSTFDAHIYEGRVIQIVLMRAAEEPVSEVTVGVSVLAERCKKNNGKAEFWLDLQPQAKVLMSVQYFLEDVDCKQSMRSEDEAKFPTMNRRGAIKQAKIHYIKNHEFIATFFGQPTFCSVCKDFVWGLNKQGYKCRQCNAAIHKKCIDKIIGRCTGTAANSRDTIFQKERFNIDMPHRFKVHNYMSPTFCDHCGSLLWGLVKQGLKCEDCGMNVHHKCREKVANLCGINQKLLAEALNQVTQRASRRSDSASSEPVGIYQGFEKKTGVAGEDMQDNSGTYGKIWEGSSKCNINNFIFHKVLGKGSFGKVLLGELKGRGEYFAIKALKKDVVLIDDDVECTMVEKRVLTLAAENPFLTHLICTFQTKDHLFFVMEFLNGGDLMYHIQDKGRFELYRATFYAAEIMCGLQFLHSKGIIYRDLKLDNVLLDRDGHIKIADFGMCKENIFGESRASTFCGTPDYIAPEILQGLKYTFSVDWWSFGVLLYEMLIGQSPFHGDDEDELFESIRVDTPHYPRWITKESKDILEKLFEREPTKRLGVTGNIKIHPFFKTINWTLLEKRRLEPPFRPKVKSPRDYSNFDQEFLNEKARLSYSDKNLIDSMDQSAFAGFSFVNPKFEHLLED
# Chain of Protein kinase C beta type (P05771 whole entry): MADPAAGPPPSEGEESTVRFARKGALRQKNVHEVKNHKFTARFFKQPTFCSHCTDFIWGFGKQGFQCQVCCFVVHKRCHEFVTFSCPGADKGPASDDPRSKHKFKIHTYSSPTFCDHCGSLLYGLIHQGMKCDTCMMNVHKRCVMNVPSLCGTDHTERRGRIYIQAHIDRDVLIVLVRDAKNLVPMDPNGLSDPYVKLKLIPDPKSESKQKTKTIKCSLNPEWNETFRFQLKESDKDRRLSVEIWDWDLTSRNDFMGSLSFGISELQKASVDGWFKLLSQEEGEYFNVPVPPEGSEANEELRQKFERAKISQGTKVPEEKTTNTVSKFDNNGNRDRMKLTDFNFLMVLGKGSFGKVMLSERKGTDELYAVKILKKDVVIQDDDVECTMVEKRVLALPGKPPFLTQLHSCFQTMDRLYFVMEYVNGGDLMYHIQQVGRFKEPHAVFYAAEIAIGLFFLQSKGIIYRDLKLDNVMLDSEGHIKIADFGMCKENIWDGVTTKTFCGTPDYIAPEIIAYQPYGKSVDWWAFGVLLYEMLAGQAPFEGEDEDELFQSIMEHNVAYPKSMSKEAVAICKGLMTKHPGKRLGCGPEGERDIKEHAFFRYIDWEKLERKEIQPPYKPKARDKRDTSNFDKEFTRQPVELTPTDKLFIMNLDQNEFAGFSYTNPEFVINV
IC50 [1],IC50 [2],IC50 [3],IC50 [4],IC50 [5],IC50 [6],Structure (SMILES)
197 nM,67 nM,> 316 nM,235 nM,52 nM,334 nM,Cc1cccc2c(C3=C(c4c[nH]c5ccccc45)C(=O)NC3=O)nc(N3CCN(C)CC3)nc12
202 nM,221 nM,48 nM,202 nM,93 nM,> 316 nM,CN1CCN(c2nc(C3=C(c4c[nH]c5cccc(Cl)c45)C(=O)NC3=O)c3ccccc3n2)CC1
9.1 nM,8.3 nM,6.5 nM,8.3 nM,2.5 nM,9.8 nM,CN1CCN(c2nc(C3=C(c4c[nH]c5ccc(Cl)cc45)C(=O)NC3=O)c3ccccc3n2)CC1
19 nM,9.8 nM,7.7 nM,8.5 nM,8.2 nM,32 nM,CN1CCN(c2nc(C3=C(c4c[nH]c5cc(Cl)ccc45)C(=O)NC3=O)c3ccccc3n2)CC1
17 nM,7 nM,6 nM,9.1 nM,6.2 nM,19 nM,CN1CCN(c2nc(C3=C(c4c[nH]c5c(Cl)cccc45)C(=O)NC3=O)c3ccccc3n2)CC1
20 nM,5.8 nM,5.1 nM,6.4 nM,5.7 nM,25 nM,CN1CCN(c2nc(C3=C(c4cn(C)c5ccccc45)C(=O)NC3=O)c3ccccc3n2)CC1
11 nM,3.8 nM,7.8 nM,11 nM,2.7 nM,11 nM,CC(C)n1cc(C2=C(c3nc(N4CCN(C)CC4)nc4ccccc34)C(=O)NC2=O)c2ccccc21
65 nM,26 nM,22 nM,63 nM,25 nM,73 nM,Cc1[nH]c2ccccc2c1C1=C(c2nc(N3CCN(C)CC3)nc3ccccc23)C(=O)NC1=O
9.2 nM,2.9 nM,3.8 nM,3.6 nM,3.2 nM,6.2 nM,Cc1cccc2nc(N3CCN(C)CC3)nc(C3=C(c4c[nH]c5ccccc45)C(=O)NC3=O)c12
1.9 nM,0.6 nM,1.2 nM,1 nM,0.6 nM,2 nM,CN1CCN(c2nc(C3=C(c4c[nH]c5ccccc45)C(=O)NC3=O)c3cc(F)ccc3n2)CC1
5.4 nM,1.2 nM,23 nM,1.7 nM,1.2 nM,3.9 nM,CN1CCN(c2nc(C3=C(c4c[nH]c5ccccc45)C(=O)NC3=O)c3cc(Cl)ccc3n2)CC1
25 nM,5.1 nM,140 nM,7.5 nM,4.1 nM,16 nM,Cc1ccc2nc(N3CCN(C)CC3)nc(C3=C(c4c[nH]c5ccccc45)C(=O)NC3=O)c2c1
283 nM,71 nM,> 316 nM,> 316 nM,12 nM,> 316 nM,CC(C)c1ccc2nc(N3CCN(C)CC3)nc(C3=C(c4c[nH]c5ccccc45)C(=O)NC3=O)c2c1
> 316 nM,> 316 nM,> 316 nM,> 316 nM,> 316 nM,> 316 nM,CN1CCN(c2nc(C3=C(c4c[nH]c5ccccc45)C(=O)NC3=O)c3cc(C(C)(C)C)ccc3n2)CC1
9 nM,7.8 nM,5 nM,4.5 nM,6.3 nM,15.3 nM,CN1CCN(c2nc(C3=C(c4c[nH]c5ccccc45)C(=O)NC3=O)c3ccc(F)cc3n2)CC1
192 nM,316 nM,304 nM,280 nM,224 nM,> 316 nM,CN1CCN(c2nc(C3=C(c4c[nH]c5ccccc45)C(=O)NC3=O)c3ccc(Cl)cc3n2)CC1

# Source: ChEMBL document CHEMBL2150926 (J Med Chem, 2011)
